Measured values from PubChem BioAssay (NCI).
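96-well plates; 48 h exposure; 5 concentrations. Endpoints by linear interpolation between flanking doses. Not reached: highest tested concentration assigned. At the TGI there is no net growth.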

Assays:
Experiment in all cases: DTP human tumour cell line panel, 48 h
SK-OV-3 ovarian = test system: SK-OV-3 ovarian
DU-145 prostate = test system: DU-145 prostate
SR leukemia = test system: SR leukemia
HCT-116 colon = test system: HCT-116 colon
SNB-19 CNS = test system: SNB-19 CNS
IGROV1 ovarian = test system: IGROV1 ovarian
U251 CNS = test system: U251 CNS
NCI-H23 lung = test system: NCI-H23 lung
LOX IMVI melanoma = test system: LOX IMVI melanoma
A549 NSCLC = test system: A549 NSCLC
NCI-H226 lung = test system: NCI-H226 lung
K-562 leukemia = test system: K-562 leukemia
OVCAR-3 ovarian = test system: OVCAR-3 ovarian
PC-3 prostate = test system: PC-3 prostate
KM12 colon = test system: KM12 colon
COLO 205 colon = test system: COLO 205 colon
EKVX NSCLC = test system: EKVX NSCLC
SF-268 CNS = test system: SF-268 CNS
HOP-62 NSCLC = test system: HOP-62 NSCLC
UACC-62 melanoma = test system: UACC-62 melanoma
OVCAR-5 ovarian = test system: OVCAR-5 ovarian
T-47D breast = test system: T-47D breast
BT-549 breast = test system: BT-549 breast
ACHN renal = test system: ACHN renal
OVCAR-4 ovarian = test system: OVCAR-4 ovarian
TK-10 renal = test system: TK-10 renal
SF-295 CNS = test system: SF-295 CNS
RPMI-8226 leukemia = test system: RPMI-8226 leukemia
HCT-15 colon = test system: HCT-15 colon
SK-MEL-5 melanoma = test system: SK-MEL-5 melanoma
SW-620 colon = test system: SW-620 colon
NCI-H522 lung = test system: NCI-H522 lung
NCI/ADR-RES ovarian = test system: NCI/ADR-RES ovarian
UACC-257 melanoma = test system: UACC-257 melanoma
OVCAR-8 ovarian = test system: OVCAR-8 ovarian
HT29 colon = test system: HT29 colon
SN12C renal = test system: SN12C renal
MDA-MB-231 breast = test system: MDA-MB-231 breast
MDA-N = test system: MDA-N
MDA-MB-435 = test system: MDA-MB-435
HL-60(TB) leukemia = test system: HL-60(TB) leukemia
CAKI-1 renal = test system: CAKI-1 renal
HCC-2998 colon = test system: HCC-2998 colon
786-0 renal = test system: 786-0 renal
SF-539 CNS = test system: SF-539 CNS
A498 renal = test system: A498 renal
SK-MEL-2 melanoma = test system: SK-MEL-2 melanoma
MCF7 breast = test system: MCF7 breast
MOLT-4 leukemia = test system: MOLT-4 leukemia
CCRF-CEM leukemia = test system: CCRF-CEM leukemia
UO-31 renal = test system: UO-31 renal
M14 melanoma = test system: M14 melanoma
HOP-92 NSCLC = test system: HOP-92 NSCLC
SK-MEL-28 melanoma = test system: SK-MEL-28 melanoma
NCI-H460 lung = test system: NCI-H460 lung
MALME-3M melanoma = test system: MALME-3M melanoma
RXF 393 renal = test system: RXF 393 renal

SMILES: O=CNCCCN1CCN(CCCNC=O)CC1
- TGI (SK-OV-3 ovarian): > 100 µM
- TGI (DU-145 prostate): > 100 µM
- TGI (SR leukemia): > 100 µM
- TGI (HCT-116 colon): > 100 µM
- TGI (SNB-19 CNS): > 100 µM
- TGI (IGROV1 ovarian): > 100 µM
- TGI (U251 CNS): > 100 µM
- TGI (NCI-H23 lung): > 100 µM
- TGI (LOX IMVI melanoma): > 100 µM
- TGI (A549 NSCLC): > 100 µM
- TGI (NCI-H226 lung): > 100 µM
- TGI (K-562 leukemia): > 100 µM
- TGI (OVCAR-3 ovarian): > 100 µM
- TGI (PC-3 prostate): > 100 µM
- TGI (KM12 colon): > 100 µM
- TGI (COLO 205 colon): > 100 µM
- TGI (EKVX NSCLC): > 100 µM
- TGI (SF-268 CNS): 9.78 µM
- TGI (HOP-62 NSCLC): > 100 µM
- TGI (UACC-62 melanoma): > 100 µM
- TGI (OVCAR-5 ovarian): > 100 µM
- TGI (T-47D breast): > 100 µM
- TGI (BT-549 breast): > 100 µM
- TGI (ACHN renal): > 100 µM
- TGI (OVCAR-4 ovarian): > 100 µM
- TGI (TK-10 renal): > 100 µM
- TGI (SF-295 CNS): > 100 µM
- TGI (RPMI-8226 leukemia): > 100 µM
- TGI (HCT-15 colon): > 100 µM
- TGI (SK-MEL-5 melanoma): > 100 µM
- TGI (SW-620 colon): > 100 µM
- TGI (NCI-H522 lung): 4.07 µM
- TGI (NCI/ADR-RES ovarian): > 100 µM
- TGI (UACC-257 melanoma): > 100 µM
- TGI (OVCAR-8 ovarian): > 100 µM
- TGI (HT29 colon): > 100 µM
- TGI (SN12C renal): > 100 µM
- TGI (MDA-MB-231 breast): > 100 µM
- TGI (MDA-N): > 100 µM
- TGI (MDA-MB-435): > 100 µM
- TGI (HL-60(TB) leukemia): > 100 µM
- TGI (CAKI-1 renal): > 100 µM
- TGI (HCC-2998 colon): > 100 µM
- TGI (786-0 renal): > 100 µM
- TGI (SF-539 CNS): > 100 µM
- TGI (A498 renal): > 100 µM
- TGI (SK-MEL-2 melanoma): > 100 µM
- TGI (MCF7 breast): > 100 µM
- TGI (MOLT-4 leukemia): > 100 µM
- TGI (CCRF-CEM leukemia): > 100 µM
- TGI (UO-31 renal): > 100 µM
- TGI (M14 melanoma): > 100 µM
- TGI (HOP-92 NSCLC): > 100 µM
- TGI (SK-MEL-28 melanoma): > 100 µM

SMILES: CC(C)(/C=N\O)NO
- TGI (DU-145 prostate): > 10 µM
- TGI (SR leukemia): > 10 µM
- TGI (HCT-116 colon): > 10 µM
- TGI (SNB-19 CNS): > 10 µM
- TGI (U251 CNS): > 10 µM
- TGI (NCI-H23 lung): > 10 µM
- TGI (LOX IMVI melanoma): > 10 µM
- TGI (A549 NSCLC): > 10 µM
- TGI (NCI-H226 lung): > 10 µM
- TGI (K-562 leukemia): > 10 µM
- TGI (OVCAR-3 ovarian): > 10 µM
- TGI (PC-3 prostate): > 10 µM
- TGI (KM12 colon): > 10 µM
- TGI (COLO 205 colon): > 10 µM
- TGI (EKVX NSCLC): > 10 µM
- TGI (SF-268 CNS): > 10 µM
- TGI (HOP-62 NSCLC): > 10 µM
- TGI (NCI-H460 lung): > 10 µM
- TGI (OVCAR-5 ovarian): > 10 µM
- TGI (T-47D breast): > 10 µM
- TGI (BT-549 breast): > 10 µM
- TGI (MALME-3M melanoma): > 10 µM
- TGI (ACHN renal): > 10 µM
- TGI (OVCAR-4 ovarian): > 10 µM
- TGI (TK-10 renal): > 10 µM
- TGI (SF-295 CNS): > 10 µM
- TGI (RPMI-8226 leukemia): > 10 µM
- TGI (HCT-15 colon): > 10 µM
- TGI (SW-620 colon): > 10 µM
- TGI (NCI-H522 lung): > 10 µM
- TGI (NCI/ADR-RES ovarian): > 10 µM
- TGI (UACC-257 melanoma): > 10 µM
- TGI (OVCAR-8 ovarian): > 10 µM
- TGI (HT29 colon): > 10 µM
- TGI (SN12C renal): > 10 µM
- TGI (MDA-MB-231 breast): > 10 µM
- TGI (MDA-N): > 10 µM
- TGI (MDA-MB-435): > 10 µM
- TGI (HL-60(TB) leukemia): > 10 µM
- TGI (CAKI-1 renal): > 10 µM
- TGI (HCC-2998 colon): > 10 µM
- TGI (786-0 renal): > 10 µM
- TGI (SK-MEL-2 melanoma): > 10 µM
- TGI (MCF7 breast): > 10 µM
- TGI (MOLT-4 leukemia): > 10 µM
- TGI (CCRF-CEM leukemia): > 10 µM
- TGI (UO-31 renal): > 10 µM
- TGI (RXF 393 renal): > 10 µM
- TGI (M14 melanoma): > 10 µM
- TGI (HOP-92 NSCLC): > 10 µM

SMILES: O=C(NNC(=O)c1ccccc1O)c1ccccc1O
- TGI (SK-OV-3 ovarian): > 100 µM
- TGI (DU-145 prostate): > 100 µM
- TGI (SR leukemia): > 31.1 µM
- TGI (HCT-116 colon): > 100 µM
- TGI (SNB-19 CNS): > 100 µM
- TGI (IGROV1 ovarian): > 34.8 µM
- TGI (U251 CNS): > 100 µM
- TGI (NCI-H23 lung): > 100 µM
- TGI (LOX IMVI melanoma): > 100 µM
- TGI (A549 NSCLC): > 100 µM
- TGI (NCI-H226 lung): > 100 µM
- TGI (K-562 leukemia): > 100 µM
- TGI (OVCAR-3 ovarian): > 100 µM
- TGI (PC-3 prostate): > 100 µM
- TGI (KM12 colon): > 100 µM
- TGI (COLO 205 colon): > 38.9 µM
- TGI (EKVX NSCLC): > 100 µM
- TGI (SF-268 CNS): > 58.4 µM
- TGI (HOP-62 NSCLC): > 100 µM
- TGI (UACC-62 melanoma): > 100 µM
- TGI (NCI-H460 lung): > 100 µM
- TGI (OVCAR-5 ovarian): > 100 µM
- TGI (T-47D breast): > 78.4 µM
- TGI (BT-549 breast): > 100 µM
- TGI (MALME-3M melanoma): > 100 µM
- TGI (ACHN renal): > 100 µM
- TGI (TK-10 renal): > 100 µM
- TGI (SF-295 CNS): > 100 µM
- TGI (RPMI-8226 leukemia): > 100 µM
- TGI (HCT-15 colon): > 100 µM
- TGI (SK-MEL-5 melanoma): > 34.5 µM
- TGI (SW-620 colon): > 100 µM
- TGI (NCI-H522 lung): 3.6 µM
- TGI (NCI/ADR-RES ovarian): > 100 µM
- TGI (OVCAR-8 ovarian): > 100 µM
- TGI (HT29 colon): > 100 µM
- TGI (SN12C renal): > 100 µM
- TGI (MDA-MB-231 breast): > 100 µM
- TGI (MDA-N): > 100 µM
- TGI (MDA-MB-435): > 100 µM
- TGI (HL-60(TB) leukemia): 0.944 µM
- TGI (CAKI-1 renal): > 100 µM
- TGI (786-0 renal): > 100 µM
- TGI (SF-539 CNS): 6.16 µM
- TGI (A498 renal): > 100 µM
- TGI (SK-MEL-2 melanoma): > 100 µM
- TGI (MCF7 breast): > 100 µM
- TGI (MOLT-4 leukemia): > 91.7 µM
- TGI (CCRF-CEM leukemia): > 100 µM
- TGI (UO-31 renal): > 100 µM
- TGI (M14 melanoma): 25.4 µM
- TGI (HOP-92 NSCLC): > 100 µM
- TGI (SK-MEL-28 melanoma): > 100 µM
